Assay results published in US20230382925A1, “MODULATORS OF CYSTIC FIBROSIS TRANSMEMBRANE CONDUCTANCE REGULATOR” (VERTEX PHARMACEUTICALS INCORPORATED, priority 2020, published 2023).

Target: CFTR (Homo sapiens, UniProt P13569)
Assay: Membrane Potential Dye, Enteroid Assay A
Format: cell-based
Conditions: for EC50: read-out: Ent. A EC50
Experimental: Base medium (ADF+++) consisted of Advanced […], 2 mM Glutamax, 10 mM HEPES, 1 μg/mL penicillin/streptomycin.
Intestinal enteroid maintenance medium (IEMMN) consisted of ADF+++, 1× B27 supplement, 1× N2 supplement, 1.25 mM N-acetyl cysteine, 10 mM Nicotinamide, 50 ng/mL hEGF, 10 nM Gastrin, 1 μg/mL hR-spondin-1, 100 ng/mL hNoggin, TGF-b type 1 inhibitor A-83-01, 100 μg/mL Primocin, 10 μM P38 MAPK inhibitor SB202190.
Bath 1 Buffer consisted of 1 mM MgCl2, 160 mM NaCl, 4.5 mM KCl, 10 mM HEPES, 10 mM Glucose, 2 mM CaCl2).
Chloride Free Buffer consisted of 1 mM Magnesium Gluconate, 2 mM Calcium Gluconate, 4.5 mM Potassium Gluconate, 160 mM Sodium Gluconate, 10 mM HEPES, 10 mM Glucose.
Bath 1 Dye Solution consisted of Bath 1 Buffer, 0.04% Pluronic F127, 20 μM Methyl Oxonol, 30 μM CaCCinh-A01, 30 μM Chicago Sky Blue.
Chloride Free Dye Solution consisted of Chloride Free Buffer, 0.04% Pluronic F127, 20 μM Methyl Oxonol, 30 μM CaCCinh-A01, 30 μM Chicago Sky Blue.
Chloride Free Dye Stimulation Solution consisted of Chloride Free Dye Solution, 10 μM forskolin, 100 μM IBMX, and 300 nM Compound III.
Human intestinal epithelial enteroid cells were obtained from the Hubrecht Institute for Developmental Biology and Stem Cell Research, Utrecht, The Netherlands and expanded in T-Flasks as previously described (Dekkers J F, Wiegerinck C L, de Jonge H R, Bronsveld I, Janssens H M, de Winter-de Groot K M, Brandsma A M, de Jong N W M, Bijvelds M J C, Scholte B J, Nieuwenhuis E E S, van den Brink S, Clevers H, van der Ent C K, Middendorp S and M Beekman J M. A functional CFTR assay using primary cystic fibrosis intestinal organoids. Nat Med. 2013 July; 19(7):939-45.).
3. Enteroid Cell Harvesting and Seeding
Cells were recovered in cell recovery solution, collected by centrifugation at 650 rpm for 5 min at 4° C., resuspended in TrypLE and incubated for 5 min at 37° C. Cells were then collected by centrifugation at 650 rpm for 5 min at 4° C. and resuspended in IEMM containing 10 μM ROCK inhibitor (RI). The cell suspension was passed through a 40 μm cell strainer and resuspended at 1×10^6 cells/mL in IEMM containing 10 μM RI. Cells were seeded at 5000 cells/well into multi-well plates and incubated for overnight at 37° C., 95% humidity and 5% CO2 prior to assay.
4. Membrane Potential Dye, Enteroid Assay A
Enteroid cells were incubated with test compound in IEMM for 18-24 hours at 37° C., 95% humidity and 5% CO2. […] Briefly, cells were washed 5 times in Bath 1 Buffer. Bath 1 Dye Solution was added, and the cells were incubated for 25 min at room temperature. Following dye incubation, cells were washed 3 times in Chloride Free Dye Solution. Chloride transport was initiated by addition of Chloride Free Dye Stimulation Solution and the fluorescence signal was read for 15 min. […] Chloride transport was then expressed as a percentage of the chloride transport following treatment with 3 μM N-[(6-amino-2-pyridyl)sulfonyl]-6-(3-fluoro-5-isobutoxy-phenyl)-2-[(4S)-2,2,4-trimethylpyrrolidin-1-yl]pyridine-3-carboxamide, 3 μM (R)-1-(2,2-difluorobenzo[d][1,3]dioxol-5-yl)-N-(1-(2,3-dihydroxypropyl)-6-fluoro-2-(1-hydroxy-2-methylpropan-2-yl)-1H-indol-5-yl)cyclopropanecarboxamide and 300 nM acute N-[2,4-bis(1,1-dimethylethyl)-5-hydroxyphenyl]-1,4-dihydro-4-oxoquinoline-3-carboxamide triple combination control (% Activity).

CFTR, sequence (P13569 with tags, fused parts or gaps DEL508-508): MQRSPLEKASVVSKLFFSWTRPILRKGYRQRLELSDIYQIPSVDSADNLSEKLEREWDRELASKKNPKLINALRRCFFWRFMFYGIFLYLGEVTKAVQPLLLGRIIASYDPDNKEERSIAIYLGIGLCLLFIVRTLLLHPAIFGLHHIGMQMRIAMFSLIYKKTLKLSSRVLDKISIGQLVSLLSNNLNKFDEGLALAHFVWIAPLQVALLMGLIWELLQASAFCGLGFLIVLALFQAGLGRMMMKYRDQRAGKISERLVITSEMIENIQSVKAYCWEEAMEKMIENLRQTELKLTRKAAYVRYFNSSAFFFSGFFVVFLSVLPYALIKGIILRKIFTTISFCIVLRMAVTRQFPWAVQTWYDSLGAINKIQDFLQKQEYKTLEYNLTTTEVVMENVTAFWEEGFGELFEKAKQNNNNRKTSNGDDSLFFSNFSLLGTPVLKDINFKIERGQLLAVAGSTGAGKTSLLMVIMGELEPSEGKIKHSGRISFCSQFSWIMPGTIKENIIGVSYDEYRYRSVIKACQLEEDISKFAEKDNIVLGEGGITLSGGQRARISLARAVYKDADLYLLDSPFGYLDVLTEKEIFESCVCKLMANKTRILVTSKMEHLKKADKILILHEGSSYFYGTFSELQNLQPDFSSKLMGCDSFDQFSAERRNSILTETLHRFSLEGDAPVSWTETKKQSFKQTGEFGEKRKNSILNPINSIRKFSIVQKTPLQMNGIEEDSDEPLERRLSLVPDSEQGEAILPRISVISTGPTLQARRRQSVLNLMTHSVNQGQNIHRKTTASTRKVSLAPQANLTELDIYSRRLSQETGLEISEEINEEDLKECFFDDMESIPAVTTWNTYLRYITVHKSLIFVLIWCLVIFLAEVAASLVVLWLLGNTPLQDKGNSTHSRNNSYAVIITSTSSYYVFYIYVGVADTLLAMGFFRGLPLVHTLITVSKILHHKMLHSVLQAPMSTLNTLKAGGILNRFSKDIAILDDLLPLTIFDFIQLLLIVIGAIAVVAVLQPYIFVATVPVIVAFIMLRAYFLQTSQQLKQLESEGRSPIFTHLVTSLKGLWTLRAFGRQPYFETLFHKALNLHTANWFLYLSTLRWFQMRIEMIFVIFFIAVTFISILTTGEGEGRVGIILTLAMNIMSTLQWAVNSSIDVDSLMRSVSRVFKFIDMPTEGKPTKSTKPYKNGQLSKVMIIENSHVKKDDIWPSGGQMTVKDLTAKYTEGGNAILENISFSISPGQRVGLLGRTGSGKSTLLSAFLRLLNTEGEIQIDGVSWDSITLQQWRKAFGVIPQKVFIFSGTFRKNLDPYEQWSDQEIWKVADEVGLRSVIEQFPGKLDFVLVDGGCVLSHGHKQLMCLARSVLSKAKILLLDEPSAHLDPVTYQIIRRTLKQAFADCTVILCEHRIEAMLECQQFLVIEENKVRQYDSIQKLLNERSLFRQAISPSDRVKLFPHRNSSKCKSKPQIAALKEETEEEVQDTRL

| Compound | Ent. A Max Activity (%) | EC50 |
| --- | --- | --- |
| COC(=O)N1CCC2(CC1)CC(N1C(=O)c3cccc(c3)S(=O)(=O)Nc3nc(cc(C4CCCCC4(C)C)n3)OC[C@H]1CC(C)C)C2 (stereo partly shown) [Compound 396] | ++ (++ is 30-60%) | < 1000 nM |
| Cc1cccc(C)c1-c1cc2nc(n1)NS(=O)(=O)c1cccc(c1)C(=O)N([C@H]1C[C@]3(CCN(C)C3)C1)[C@H](CC(C)C)CO2 [Compound 330] | +++ (+++ is >60%) | < 1000 nM |
| COC(=O)N1CCC2(CC1)CC(N1C[C@@H](C)Oc3cc(-c4c(C)cccc4C)nc(n3)NS(=O)(=O)c3cccc(c3)C1=O)C2 [Compound 312] | +++ (+++ is >60%) | < 1000 nM |
| CC(C)C[C@@H]1COc2cc(-c3ccccc3C(C)C)nc(n2)NS(=O)(=O)c2cccc(c2)C(=O)N1C1CC2(CCN(C)CC2)C1 [Compound 11, (11R)-11-Isobutyl-6-(2-isopropylphenyl)-12-(7-methyl-7-azaspiro[3.5]nonan-2-yl)-2,2-dioxo-9-oxa-2 λ6-thia-3,5,12,19-tetrazatricyclo[12.3.1.14,8]nonadeca-1(18),4,6,8(19),14,16-hexaen-13-one] | +++ (+++ is >60%) | < 1000 nM |
| CC(=O)N1C[C@H]2C[C@H](N3C(=O)c4cccc(c4)S(=O)(=O)Nc4nc(cc(-c5c(C)cccc5C)n4)OC[C@H]3CC(C)C)C[C@H]2C1 [Compound 336] | ++ (++ is 30-60%) | < 1000 nM |
| Cc1cccc(C)c1-c1cc2nc(n1)NS(=O)(=O)c1cccc(c1)C(=O)N(C1CCC1)[C@H](CC(C)C)CO2 [Compound 27, (11R)-12-cyclobutyl-6-(2,6-dimethylphenyl)-11-isobutyl-2,2-dioxo-9-oxa-2λ^6-thia-3,5,12,19-tetrazatricyclo[12.3.1.14,8]nonadeca-1(18),4(19),5,7,14,16-hexaen-13-one] | ++ (++ is 30-60%) | < 1000 nM |
| COC(=O)N1CCC2(CC(N3C(=O)c4cccc(c4)S(=O)(=O)Nc4nc(cc(-c5c(C)cccc5C)n4)OC[C@H]3CC(C)C)C2)C1 (stereo partly shown) [Compound 328] | +++ (+++ is >60%) | < 1000 nM |
| Cc1cccc(C)c1-c1cc2nc(n1)NS(=O)(=O)c1cccc(c1)C(=O)N(C1CC3(CCN(C)CC3)C1)C[C@@H](C)O2 [Compound 179, (10R)-6-(2,6-Dimethylphenyl)-10-methyl-12-(7-methyl-7-azaspiro[3.5]nonan-2-yl)-2,2-dioxo-9-oxa-2λ^6-thia-3,5,12,19-tetrazatricyclo[12.3.1.14,8]nonadeca-1(18),4(19),5,7,14,16-hexaen-13-one] | +++ (+++ is >60%) | 1000 to 3000 nM |
| Cc1cccc(C)c1-c1cc2nc(n1)NS(=O)(=O)c1cccc(c1)C(=O)N(C1CCN(C)CC1)CCO2 [Compound 438] | + (+ is <300%) | – |
| Cc1cccc(C)c1-c1cc2nc(n1)NS(=O)(=O)c1cccc(c1)C(=O)N([C@H]1C[C@@H](O)C1)[C@H](CC(C)C)CO2 (single isomer, unassigned) [Compound 43] | +++ (+++ is >60%) | 1000 to 3000 nM |
| Cc1cccc(C)c1-c1cc2nc(n1)NS(=O)(=O)c1cccc(c1)C(=O)N(C1CC3(CC3)C1)[C@@H](CC1(C(F)(F)F)CC1)CO2 [Compound 351] | + (+ is <300%) | < 1000 nM |
| Cc1cccc(C)c1-c1cc2nc(n1)NS(=O)(=O)c1cccc(c1)C(=O)N([C@H]1C[C@]3(CCN(C(C)C)C3)C1)[C@H](CC(C)C)CO2 (single isomer, unassigned) [Compound 33] | +++ (+++ is >60%) | < 1000 nM |
| Cc1cccc(C)c1-c1cc2nc(n1)NS(=O)(=O)c1cccc(c1)C(=O)N([C@H]1C[C@]3(CCN(C)C3)C1)[C@H](CC(C)C)CO2 (stereo in doubt) [Compound 333] | +++ (+++ is >60%) | < 1000 nM |
| COC(=O)N1CCCC2(CC(N3C(=O)c4cccc(c4)S(=O)(=O)Nc4nc(cc(-c5c(C)cccc5C)n4)OC[C@H]3CC(C)C)C2)C1 (stereo partly shown) [Compound 327] | +++ (+++ is >60%) | < 1000 nM |
| CC(C)C[C@@H]1COc2cc(C3CCCCC3(C)C)nc(n2)NS(=O)(=O)c2cccc(c2)C(=O)N1C1CC2(CCNCC2)C1 (stereo partly shown) [Compound 399] | +++ (+++ is >60%) | < 1000 nM |
| Cc1cccc(C)c1-c1cc2nc(n1)NS(=O)(=O)c1cccc(c1)C(=O)N([C@H]1C[C@]3(CCCCN3C)C1)[C@H](CC(C)C)CO2 [Compound 331] | +++ (+++ is >60%) | < 1000 nM |
| CC(C)C[C@@H]1COc2cc(C3CCCCC3(C)C)nc(n2)NS(=O)(=O)c2cccc(c2)C(=O)N1C1CC2(CCN(C(=O)OC(C)(C)C)CC2)C1 (stereo partly shown) [Compound 400] | ++ (++ is 30-60%) | < 1000 nM |
| Cc1cccc(C)c1-c1cc2nc(n1)NS(=O)(=O)c1cccc(c1)C(=O)N(C1CCC(C)(C)C1)[C@H](CC(C)C)CO2 (stereo partly shown) [Compound 348] | +++ (+++ is >60%) | < 1000 nM |
| Cc1cccc(C)c1-c1cc2nc(n1)NS(=O)(=O)c1cccc(c1)C(=O)N([C@H]1CC3(C[C@H](C(=O)N(C)C)C3)C1)[C@H](CC(C)C)CO2 (stereo partly shown) [Compound 342] | +++ (+++ is >60%) | < 1000 nM |
| Cc1cccc(C)c1-c1cc2nc(n1)NS(=O)(=O)c1cccc(c1)C(=O)N([C@H]1C[C@@H](O)C1)[C@H](CC(C)C)CO2 (single isomer, unassigned) [Compound 44] | +++ (+++ is >60%) | < 1000 nM |
| Cc1cccc(C)c1-c1cc2nc(n1)NS(=O)(=O)c1cccc(c1)C(=O)N(C1CCCC1)[C@H](CC(C)C)CO2 [Compound 30, (11R)-12-Cyclopentyl-6-(2,6-dimethylphenyl)-11-isobutyl-2,2-dioxo-9-oxa-2λ^6-thia-3,5,12,19-tetrazatricyclo[12.3.1.14,8]nonadeca-1(18),4(19),5,7,14,16-hexaen-13-one] | +++ (+++ is >60%) | < 1000 nM |
| Cc1cccc(C)c1-c1cc2nc(n1)NS(=O)(=O)c1cccc(c1)C(=O)N(C1CC3(COC3)C1)[C@H](CC(C)C)CO2 [Compound 29, (11R)-6-(2,6-Dimethylphenyl)-11-isobutyl-12-(2-oxaspiro[3.3]heptan-6-yl)-2,2-dioxo-9-oxa-2λ^6-thia-3,5,12,19-tetrazatricyclo[12.3.1.14,8]nonadeca-1(18),4(19),5,7,14,16-hexaen-13-one] | +++ (+++ is >60%) | < 1000 nM |
| Cc1cccc(C)c1-c1cc2nc(n1)NS(=O)(=O)c1cccc(c1)C(=O)N(C1CC(C(=O)O)C1)[C@H](CC(C)C)CO2 (stereo partly drawn) [Compound 35, 3-[(11R)-6-(2,6-dimethylphenyl)-11-isobutyl-2,2,13-trioxo-9-oxa-2λ^6-thia-3,5,12,19-tetrazatricyclo[12.3.1.14,8]nonadeca-1(18),4(19),5,7,14,16-hexaen-12-yl]cyclobutanecarboxylic acid] | +++ (+++ is >60%) | 3000 to 30000 nM |
| Cc1cccc(C)c1-c1cc2nc(n1)NS(=O)(=O)c1cccc(c1)C(=O)N(C1CCOCC1)CCO2 [Compound 439] | +++ (+++ is >60%) | 3000 to 30000 nM |
| COC(=O)N1CCC2(CC1)CC(N1C(=O)c3cccc(c3)S(=O)(=O)Nc3nc(cc(-c4c(C)cccc4C)n3)OC[C@@H]1CC(C)C)C2 [Compound 113, Methyl 2-[(11S)-6-(2,6-dimethylphenyl)-11-isobutyl-2,2,13-trioxo-9-oxa-2λ^6-thia-3,5,12,19-tetrazatricyclo[12.3.1.14,8]nonadeca-1(18),4(19),5,7,14,16-hexaen-12-yl]-7-azaspiro[3.5]nonane-7-carboxylate] | ++ (++ is 30-60%) | < 1000 nM |
